For orientation: IC50 means the concentration needed to halve the response being measured.

T2 sequence (P08238 whole entry): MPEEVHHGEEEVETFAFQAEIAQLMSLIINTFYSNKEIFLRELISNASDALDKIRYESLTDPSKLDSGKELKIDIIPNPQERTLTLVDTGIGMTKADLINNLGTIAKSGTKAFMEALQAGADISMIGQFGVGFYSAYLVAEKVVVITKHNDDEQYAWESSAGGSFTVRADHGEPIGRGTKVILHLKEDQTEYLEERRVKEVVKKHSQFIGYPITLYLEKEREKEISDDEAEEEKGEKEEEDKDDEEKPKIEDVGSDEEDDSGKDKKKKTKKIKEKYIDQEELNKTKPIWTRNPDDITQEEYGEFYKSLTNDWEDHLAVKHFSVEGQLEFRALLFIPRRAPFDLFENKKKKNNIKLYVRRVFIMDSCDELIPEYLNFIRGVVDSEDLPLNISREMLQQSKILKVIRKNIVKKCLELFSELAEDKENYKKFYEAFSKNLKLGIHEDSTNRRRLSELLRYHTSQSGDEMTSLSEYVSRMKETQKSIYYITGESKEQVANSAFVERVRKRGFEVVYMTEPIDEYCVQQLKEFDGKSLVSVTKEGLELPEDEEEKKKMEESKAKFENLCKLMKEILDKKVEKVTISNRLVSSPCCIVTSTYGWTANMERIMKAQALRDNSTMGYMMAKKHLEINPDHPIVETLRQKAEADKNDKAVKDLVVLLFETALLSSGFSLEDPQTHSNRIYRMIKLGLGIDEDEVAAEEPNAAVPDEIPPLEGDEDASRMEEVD

Test system in one experiment: not listed separately
Briefly: Sulforhodamine B (SRB) growth inhibition assay. The following applies: SRB growth arrest assay. Format: cell-based. As to the method:
A growth inhibition assay was also employed for the evaluation of candidate HSP90 inhibitors:
Day 1 • 1) Determine cell number by haemocytometer. • 2) Using an 8 channel multipipettor, add 160 μl of the cell suspension (3600 cells/well or 2×10^4 cells/ml) to each well of a 96-well microtitre plate. • 3) Incubate overnight at 37° C. in a CO2 incubator.
Day 2 • 4) Stock solutions of drugs are prepared, and serial dilutions of each drug are performed in medium to give final concentrations in wells. • 5) Using a multipipettor, 40 μl of drug (at 5× final concentration) is added to quadruplicate wells. • 6) Control wells are at either side of the 96 well plates, where 40 μl of medium is added. • 7) Incubate plates in CO2 incubator for 4 days (48 hours).
Day 6 • 8) Tip off medium into sink and immerse plate slowly into 10% ice cold trichloroacetic acid (TCA). […] Leave for 15 mins. • 12) Wash off unbound SRB stain with four washes of 1% acetic acid. • 13) Dry plates in incubator. • 14) Solubilise SRB using 100 μl of 10 mM Tris base and put plates on plate shaker for 5 mins. • 15) Determine absorbance at 540 nm using a plate reader. Calculate mean absorbance for quadruplicate wells and express as a percentage of value for control, untreated wells. • 16) Plot % absorbance values versus log drug concentration and determine the IC50.
Turning to `Oc1cc(O)c(-c2n[nH]cc2N2CCNCC2)cc1Cl` [Example 2, 4-Chloro-6-(4-piperazin-1-yl-1H-pyrazol-3-yl)-benzene-1,3-diol], the IC50 was less than 50 µM.

The target in a further experiment is T1, yeast HSP90 (Saccharomyces cerevisiae, UniProt P02829).
T1 construct: made in house; host or cells: E. coli
T1 sequence (P02829 whole entry): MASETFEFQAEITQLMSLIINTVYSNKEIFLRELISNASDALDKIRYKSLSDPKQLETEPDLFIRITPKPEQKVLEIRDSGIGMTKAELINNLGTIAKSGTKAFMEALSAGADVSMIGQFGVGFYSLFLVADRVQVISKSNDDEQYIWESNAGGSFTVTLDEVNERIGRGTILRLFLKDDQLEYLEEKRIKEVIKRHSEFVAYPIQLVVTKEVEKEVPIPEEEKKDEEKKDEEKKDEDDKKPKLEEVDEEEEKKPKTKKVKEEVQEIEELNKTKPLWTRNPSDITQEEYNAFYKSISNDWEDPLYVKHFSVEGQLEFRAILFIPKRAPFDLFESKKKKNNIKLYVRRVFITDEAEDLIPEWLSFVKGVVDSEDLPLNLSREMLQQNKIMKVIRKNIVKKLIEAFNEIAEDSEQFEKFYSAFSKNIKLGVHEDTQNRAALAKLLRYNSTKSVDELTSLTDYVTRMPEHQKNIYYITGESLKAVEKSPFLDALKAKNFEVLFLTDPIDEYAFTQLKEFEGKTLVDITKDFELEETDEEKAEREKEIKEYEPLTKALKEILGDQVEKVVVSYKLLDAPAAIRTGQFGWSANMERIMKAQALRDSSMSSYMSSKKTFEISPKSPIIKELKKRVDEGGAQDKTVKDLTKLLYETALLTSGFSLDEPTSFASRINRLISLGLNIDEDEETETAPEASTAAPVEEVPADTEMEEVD
The experiment can be described thus: Malachite green ATPase assay. The format is biochemical. Particulars: activity range. The text has this:
The intrinsic ATPase activity of HSP90 may be measured using yeast HSP90 as a model system. The assay, based on the use of malachite green for the measurement of inorganic phosphate, was used to test the HSP90 inhibitory activity of the compounds of the Examples herein.
Malachite Green ATPase Assay
Chemicals are of the highest purity commercially available and all aqueous solutions are made up in AR water. Because of the need to minimise contamination with inorganic phosphate, precautions should be taken with solutions and apparatus used in the assays. Glassware and pH meters are rinsed with double distilled or deionised water before use and, wherever possible, plastic ware should be used. Gloves are worn for all procedures. • (1) Greiner 384-well (Greiner 781101) or Costar 384-well flat-bottomed polystyrene multiwell plates (VWR). • (2) Assay buffer of (a) 100 mM Tris-HCl, pH 7.4, (b) 150 mM KCl, (c) 6 mM MgCl2. Stored at room temperature. • (3) 0.0812% (w/v) malachite green (M 9636, Sigma Aldrich Ltd., Poole, UK). Stored at room temperature. • (4) 2.32% (w/v) polyvinyl alcohol USP (P 1097, Sigma Aldrich Ltd, Poole, UK) in boiling water (see Comment 1), allowed to cool, and stored at room temperature. • (5) 5.72% (w/v) ammonium molybdate in 6 M hydrochloric acid. Stored at room temperature. • (6) 34% (w/v) sodium citrate. Stored at room temperature. • (7) 100 mM ATP, disodium salt, special quality (47699, Sigma Aldrich). Stored at −20° C. • (8) E. coli expressed yeast HSP90 protein, purified >95% (see, e.g., Panaretou et al., 1998) and stored in 50 uL aliquots at −80° C.
Method • 1. Dilute test compounds to 500 μM in AR water (DMSO concentration will be 2.5%). Transfer 2.5 μl of these compounds directly from the daughter plate to the assay plate, giving a final assay concentration of 100 μM. To obtain 12 point IC50 values, perform serial dilutions 1:2 to produce a range of assay concentrations from 100 μM to 97.6 nM (2.5% DMSO), and transfer 2.5 μl of each concentration into the assay plate. Column 1 in the assay plate contains no compound, as a negative control. An additional row with no compound is also used as a background. • 2. Prepare ATP by diluting 100 mM stock to 925 μM with assay buffer, and aliquot 5 μl of diluted ATP to each well including controls (final assay concentration 370 μM). • 3. Add 5 μl of buffer to background row. • 4. Dilute enzyme preparation to 1.05 μM with assay buffer, and aliquot 5 μl into each compound well and to the negative control column. • 5. Collect the reagents to the bottom of the well, cover plate with plate seal and incubate overnight at 37 degC. • 6. First thing in the morning prepare the Malachite Green Reagent. Add 2 parts of Malachite Green Solution, 1 part of Polyvinyl Alcohol Solution, 1 part of Ammonium Molybdate Solution, and 2 parts of AR water. • 7. Invert to mix, and leave for approximately 1 hour until the colour turns from brown to golden yellow. • 8. Add 40 μl of Malachite Green Reagent to each well, allow 5 mins for colour to develop. • 9. Add 5 μl of Sodium Citrate Reagent to each well (see comment 2) • 10. Re-cover with plate seal and shake on plate shaker for at least 15 mins. • 11. Measure Absorbance at 620 nm using a suitable plate reader (e.g. Victor, Perkin Elmer Life Sciences, Milton Keynes, UK).
Comments • (1) The polyvinyl alcohol dissolves in boiling water with difficulty and stirring for 2-3 h is required. • (2) The time interval between addition of the malachite green reagent and the sodium citrate should be kept as short as possible in order to reduce the non-enzymatic hydrolysis of ATP. Once the sodium citrate is added, the colour is stable for up to 4 h at room temperature. • (3) Compounds can be added to the assay plates using a Biomek FX Robot (Beckman Coulter).
Turning to `Oc1cc(O)c(-c2n[nH]cc2N2CCNCC2)cc1Cl` [Example 2, 4-Chloro-6-(4-piperazin-1-yl-1H-pyrazol-3-yl)-benzene-1,3-diol], the IC50 was less than 50 µM.

The next experiment has as its target T2, human full-length HSP90 (Homo sapiens, UniProt P08238).
T2 construct: E. coli expressed human full-length HSP90 protein; made in house; host or cells: E. coli
The experiment can be described thus: Fluorescence polarization (FP) binding assay. Particulars: FP assay (asterisk in table), activity range. The text has this: Fluorescence Polarization Assay
Fluorescence polarization {also known as fluorescence anisotropy} measures the rotation of a fluorescing species in solution, where the larger molecule the more polarized the fluorescence emission. When the fluorophore is excited with polarized light, the emitted light is also polarized. The molecular size is proportional to the polarization of the fluorescence emission.
The fluoroscein-labelled probe—RBT0045864-FAM—
[drawing 121] binds to HSP90 {full-length human, full-length yeast or N-terminal domain HSP90} and the anisotropy {rotation of the probe:protein complex} is measured.
Test compound is added to the assay plate, left to equilibrate and the anisotropy measured again. Any change in anisotropy is due to competitive binding of compound to HSP90, thereby releasing probe.
Chemicals are of the highest purity commercially available and all aqueous solutions are made up in AR water. • 1) Costar 96-well black assay plate #3915 • 2) Assay buffer of (a)100 mM Tris pH7.4; (b) 20 mM KCl; (c) 6 mM MgCl2. Stored at room temperature. • 3) BSA (bovine serum albumen) 10 mg/ml (New England Biolabs # B9001S) • 4) 20 mM probe in 100% DMSO stock concentration. Stored in the dark at RT. Working concentration is 200 nM diluted in AR water and stored at 4° C. Final concentration in assay 80 nM. • 5) E. coli expressed human full-length HSP90 protein, purified >95% (see, e.g., Panaretou et al., 1998) and stored in 50 μL aliquots at −80° C.
Protocol • 1) Add 100 μl 1× buffer to wells 11 A and 12A (=FP BLNK) • 2) Prepare assay mix—all reagents are kept on ice with a lid on the bucket as the probe is light-sensitive.
• 3) Aliquot 100 μl assay mix to all other wells • 4) Seal plate and leave in dark at room temp for 20 minutes to equilibrate
Compound Dilution Plate—1×3 Dilution Series • 1) In a clear 96-well v-bottom plate—{# VWR 007/008/257} add 10 μl 100% DMSO to wells B1 to H11 • 2) To wells A1 to A11 add 17.5 μl 100% DMSO • 3) Add 2.5 μl cpd to A1. This gives 2.5 mM {50×} stock cpd—assuming cpds 20 mM. • 4) Repeat for wells A2 to A10. Control in columns 11 and 12. • 5) Transfer 5 μl from row A to row B—not column 12. Mix well. • 6) Transfer 5 μl from row B to row C. […] In column 11 {provides standard curve} only add compound B11-H11. Add 2 μl of 100 mM standard cpd to wells B12-H12 {is positive control } • 13)The Z′ factor is calculated from zero controls and positive wells. It typically gives a value of 0.7-0.9.
The compounds tested in the above assay were assigned to one of two activity ranges, namely A=<10 μM; B=>10 μM, and those assignments are reported above.
`CC(=O)c1ccc(CN2CCN(c3c[nH]nc3-c3cc(Cl)c(O)cc3O)CC2)cc1` [Example 47] had an IC50 of less than 10 µM.
Same read-out and setting: the same measure for `O=C(O)CN1CCN(c2c[nH]nc2-c2cc(Cl)c(O)cc2O)CC1` [Example 46]: less than 10 µM.
For the compound `OCc1[nH]nc(-c2cc(Cl)c(O)cc2O)c1N1CCNCC1` [Example 50, 4-Chloro-6-(5-hydroxymethyl-4-piperazin-1-yl-1H-pyrazol-3-yl)-benzene-1,3-diol], the half-inhibitory concentration (IC50) is less than 10 µM.
`Cc1[nH]nc(-c2cc(Cl)c(O)cc2O)c1N1CCNCC1` [Example 49, 4-Chloro-6-(5-methyl-4-piperazin-1-yl-1H-pyrazol-3-yl)-benzene-1,3-diol]: the half-maximal inhibitory concentration (IC50) is less than 10 µM.
For the compound `CCOC(=O)CN1CCN(c2c[nH]nc2-c2cc(Cl)c(O)cc2O)CC1` [Example 45], the 50% inhibitory concentration (IC50) was less than 10 µM.
For `O=S(=O)(c1ccsc1)N1CCN(c2c[nH]nc2-c2cc(Cl)c(O)cc2O)CC1` [Example 48], the IC50 was less than 10 µM.
For the compound `Cc1c[nH]c2cc(O)c(-c3n[nH]cc3N3CCNCC3)cc12` [Example 54, 3-Methyl-5-(4-piperazin-1-yl-1H-pyrazol-3-yl)-1H-indol-6-ol], the IC50 was greater than 10 µM.
Regarding `CNC(=O)c1cccc(CN2CCN(c3c[nH]nc3-c3cc(Cl)c(O)cc3O)CC2)c1` [Example 44], the IC50 was less than 10 µM.
Turning to `COc1ccc(CC(=O)N2CCN(c3c[nH]nc3-c3cc(Cl)c(O)cc3O)CC2)cc1` [Example 42], the IC50 was greater than 10 µM.
Take `CC(=O)Nc1ccc(-c2n[nH]cc2N2CCNCC2)c(O)c1` [Example 53, 3-[4-Acetamido-2-hydroxyphenyl]-4-(piperazin-1-yl)-1H-pyrazole]: the IC50 is greater than 10 µM.
